Results as given in patent publication US8653043B2, “Enhanced neoglycosides through neoglycosylation and methods of use thereof” (Wisconsin Alumni Research Foundation, priority 2009, dated 2014).

Legend:
human cancer cell lines = assay: Cytotoxicity assay (calcein AM / CellTiter-Glo) in carcinoma cell lines; assay type: cell-based; details: for improvement of cytotoxic activity over the parent natural product: versus parent 1, breast, colorectal, lung and prostate carcinoma lines; for potency improvement of amide-linked versus ester-linked neoglycoside: ABA compound compared with ester analog bearing the same sugar; for cytotoxic potency compared to parent 1: in one or more cell lines, comparison with betulinic acid (1)
Experimental: The cytoxicity of the library members was assessed in seven human cancer cell lines representing a broad range of carcinomas including breast, colorectal, CNS, lung and prostate.
The cytoxicity of ABA1-5 was evaluated in human cell lines of breast, colorectal, lung and prostate carcinomas.
Testing was performed by the Keck-UWCCC Small Molecule Screening Facility (Madison, Wis.). Carcinoma cell lines were maintained and harvested as previously reported, along with compound handling and assay set up.^21 Cells were plated in 50 μL volumes in 384-well clear bottom tissue culture plates. Serial dilutions of 30 mM DMSO compound stock solutions were done in 96-well plates using a BioTek Precision XS liquid handler (Winooski, Vt.) to a concentration 100× greater than that of the most dilute assay. Final dilutions were performed in a 384-well plate in quadruplicate using a Beckman-Coulter Biomek FX liquid handler with a 384 channel pipetting head (Fullerton, Calif.) and were stored at −20° C. when not in use. Compounds were then added to the culture plates by the Biomek FX handler and were incubated at 37° C. for 72 h. The calcein AM reagent (acetoxymethyl ester; 30 μL, 10 μM) was then added, the cells were incubated for 30 m at 37° C., and plates were read for fluorescent emission (535 nm). Cell titer-glo reagent (15 μL; Promega Corp., Madison, Wis.) was added and the plates incubated for 10 m at room temperature with gentle agitation to lyse the cells. Each plate was reexamined for luminescence to verify inhibition. IC50 values for cytotoxicity were determined using XLift 4.2 as previously reported.^21

[1] = test system: HIV-1 virus (IIIB strain); assay: Anti-HIV-1 cytoprotection (CPE) assay in CEM-SS cells; assay type: cell-based; details: 1 μM; HIV-1 IIIB-infected CEM-SS cells
Experimental: To assess the corresponding impact of differential glycosylation upon antiviral activity, the entire set of compounds was subsequently tested in a single dose (10 μM) anti-HIV-1 assay against CEM-SS cells (i.e., CD4+ T lymphocytes) infected with the IIIB strain of HIV-1. Compound efficacy was determined by the percent increase of cytoprotective effect (CPE), which is prevention of intercellular virus replication, over untreated HIV-1-infected cells.
Both cells and virus were mixed with compound (10 μM & 1 μM for ABA1-5 and […] for all others) in triplicate in 96-well plates and incubated for six days at 37° C. Compound cytoprotection and cytotoxicity were evaluated using MTS tetrazolium dye (Promega Corp., Madison, Wis.) as previously reported.^23 Each assay plate used the following controls: cells only, cells/virus, cells/compound, compound only. The reverse transcriptase inhibitor AZT and protease inhibitor Indinavir were included as positive controls.

SMILES: C=C(C)[C@@H]1CC[C@]2(C(=O)O)CC[C@]3(C)[C@H](CC[C@@H]4[C@@]5(C)CC[C@H](NC(=O)CN(OC)[C@@H]6O[C@H](CO)[C@@H](O)[C@@H](O)[C@@H]6O)C(C)(C)[C@@H]5CC[C@]43C)[C@@H]12 [ABA1, (3S)-N-(N′-Methoxy-N′-β-D-altrosylglycyl)betulinic acid]
- improvement of cytotoxic activity over the parent natural product (human cancer cell lines): ~2 fold

SMILES: C=C(C)[C@@H]1CC[C@]2(C(=O)O)CC[C@]3(C)[C@H](CC[C@@H]4[C@@]5(C)CC[C@H](NC(=O)CN(OC)C6OC[C@H](O)[C@H](O)[C@@H]6O)C(C)(C)[C@@H]5CC[C@]43C)[C@@H]12 (stereo partly drawn) [ABA4, (3S)-N-(N′-Methoxy-N′-L-ribosylglycyl)betulinic acid]
- potency improvement of amide-linked versus ester-linked neoglycoside (human cancer cell lines): ≥ 6 fold
- improvement of cytotoxic activity over the parent natural product (human cancer cell lines): ~2 fold

SMILES: C=C(C)[C@@H]1CC[C@]2(C(=O)O)CC[C@]3(C)[C@H](CC[C@@H]4[C@@]5(C)CC[C@H](NC(=O)CN(OC)C6OC[C@@H](O)[C@H](O)[C@H]6O)C(C)(C)[C@@H]5CC[C@]43C)[C@@H]12 (stereo partly drawn) [ABA5, (3S)-N-(N′-Methoxy-N′-D-xylosylglycyl)betulinic acid]
- potency improvement of amide-linked versus ester-linked neoglycoside (human cancer cell lines): ≤ 2 fold
- improvement of cytotoxic activity over the parent natural product (human cancer cell lines): ~2 fold

SMILES: C=C(C)[C@@H]1CC[C@]2(C(=O)O)CC[C@]3(C)[C@H](CC[C@@H]4[C@@]5(C)CC[C@H](OC(=O)CN(OC)[C@@H]6O[C@H](CO)[C@@H](O)[C@@H](O)[C@H]6O)C(C)(C)[C@@H]5CC[C@]43C)[C@@H]12 [BA1, (3S)-O-(N-Methoxy-N-β-D-allosylglycyl)betulinic acid]
- cytotoxic potency compared to parent 1 (human cancer cell lines): equipotent

SMILES: C=C(C)[C@@H]1CC[C@]2(C(=O)O)CC[C@]3(C)[C@H](CC[C@@H]4[C@@]5(C)CC[C@H](OC(=O)CN(OC)C6O[C@@H](C)[C@@H](O)[C@@H](O)[C@@H]6O)C(C)(C)[C@@H]5CC[C@]43C)[C@@H]12 (stereo partly drawn) [BA9, (3S)-O-(N-Methoxy-N-L-fucosylglycyl)betulinic acid]
- cytotoxic potency compared to parent 1 (human cancer cell lines): equipotent

SMILES: C=C(C)[C@@H]1CC[C@]2(C(=O)O)CC[C@]3(C)C(CCC4[C@@]5(C)CC[C@H](OC(=O)CN(OC)C6O[C@@H](C)[C@H](O)[C@@H](O)[C@H]6O)C(C)(C)C5CC[C@]43C)C12 (stereo partly drawn) [BA27]
- IC50 (human cancer cell lines; ester-linked BA series, 72 h incubation, cell line not specified / at least one cell line): ≥ 25 µM

SMILES: C=C(C)[C@@H]1CC[C@]2(C(=O)O)CC[C@]3(C)C(CCC4[C@@]5(C)CC[C@H](OC(=O)CN(OC)[C@H]6OC[C@H](O)[C@@H](O)[C@@H]6O)C(C)(C)C5CC[C@]43C)C12 (stereo partly drawn) [BA32, (3S)-O-(N-Methoxy-N-β-L-xylosylglycyl)betulinic acid]
- cytotoxic potency compared to parent 1 (human cancer cell lines): equipotent

SMILES: C=C(C)[C@@H]1CC[C@]2(C(=O)O)CC[C@]3(C)[C@H](CCC4[C@@]5(C)CC[C@H](OC(=O)CNOC)C(C)(C)C5CC[C@]43C)C12 (stereo partly drawn) [compound 7, (3S)-O-(N-Methoxyglycyl)betulinic acid]
- cytotoxic potency compared to parent 1 (human cancer cell lines): relatively similar potencies

SMILES: C=C(C)[C@@H]1CC[C@]2(C(=O)O)CC[C@]3(C)[C@H](CC[C@@H]4[C@@]5(C)CC[C@H](NC(=O)CNOC)C(C)(C)[C@@H]5CC[C@]43C)[C@@H]12 [compound 10, (3S)-N-(N′-Methoxyglycyl)aminobetulinic acid]
- cytotoxic potency compared to parent 1 (human cancer cell lines): relatively similar potencies
- increase in CPE [1]: no noticeable activity
